From patent US10576086B2, “Triazine derivatives as interferon-gamma inhibitors” (University of Greenwich, priority 2015, dated 2020)

Columns and labels:
PBMCs = assay: Experiment 1: PBMC viability, trypan blue exclusion; type: cell-based, human; settings: after 24 h incubation
Protocol: Cell viability was checked using trypan blue exclusion, using 0.04% trypan blue solution (0.4% trypan blue solution (Sigma, UK) diluted 10× with PBS). 10 μl trypan blue solution was mixed with 10 μl cell suspension, and after 5 minutes was mounted onto the haemocytometer. The total number of cells, and the total number of viable (colourless) cells were counted in three 1 mm squares. Viability was greater than 85% in all cases.
(§1) The tubes were incubated at 37° C. for 24 hours under a 5% CO2 atmosphere. After incubation, the cells (>75% viable according to trypan blue test) were centrifuged at 3000 prm for 10 minutes, and the cell-free supernatants were collected and stored at −70° C. before analysis for IFN-γ.

[1] = test system: IFN-γ production in human peripheral blood mononuclear cells (PBMCs); assay: Experiment 1: IFN-γ production by PHA-stimulated human PBMCs, ELISA; type: cell-based; settings: for IFN-γ Concentration: PHA 5 μg/ml; for IFN-γ Concentration, Mean: 24 h
Protocol: The ex vivo activity of various compounds towards suppression of IFN-γ production in human peripheral blood mononuclear cells (PBMCs) was studied.
[…] They were not taking any other prescribed medication that could interfere with the results.
The blood was transferred into 50 ml centrifuge tubes (Corning, USA) containing heparin sodium salt 37.5 mg heparin powder diluted in 300-500 μl phosphate buffered saline (PBS) for 50 ml blood), and centrifuged at 2000 rpm for 10 minutes, and the plasma portion was separated. The plasma was further centrifuged at 3000 rpm for 10 minutes, and the supernatant separated and kept for later use.
The blood cells from the initial centrifugation were diluted with an equal volume of RPMI-1640 (Sigma, UK), and layered (2:1) onto Lymphoprep (Axis-Shield, Norway) in 25 ml universal tubes (Bibby Sterilin, UK) for density gradient centrifugation at 2500 rpm for 30 minutes.
PBMCs (lymphocytes and monocytes) were then removed from the interface, diluted in an equal volume of RPMI-1640 and washed twice by centrifugation at 3000 rpm for 10 minutes.
For testing, the PBMCs were re-suspended in a known volume of culture medium containing RPMI-1640 supplemented with 2 mM L-glutamine, 100 U penicillin, and 100 μg streptomycin (Sigma, UK).
The cell count was determined by the use of a haemocytometer using 10 μl of the cell suspension. The number of cells was determined based on a count in 5 random 1 mm squares.
The cell solution was then diluted with the supplemented RPMI-1640 medium to ensure a cell count of 2×10^6 cells/ml.
The PBMC suspension was added to tissue culture tubes (Bibby Sterilin, UK) with 5% autologous plasma, 5 μg/mlphytohaemaglutinin (PHA) to stimulate T-lymphocyte IFN-γ production, and a solution containing various concentrations of the compound to be studied. A control containing no compound was also cultured for each subject.
In the case of lamotrigine, the isethionate salt was used, and diluted with RPMI-1640 to produce 100 μM, 30 μM, 10 μM and 3 μM solutions that were tested on PBMCs from the first three subjects. With PBMC's from the other two subjects, a 300 μM solution was also tested.
For sipatrigine, the mesylate salt was used, and diluted with RPMI-1640 to produce 30 μM, 10 μM, 3 μM and 1 μM solutions. It was tested on PBMCs from the first three subjects only.
as §1
Levels of IFN-γ produced by the PBMCs were determined by the DuoSet ELISA Development system for human IFN-γ (RD Systems, UK), with a sensitivity of 15.6-1000 pg/ml.
Capture antibody, detection antibody, standard and streptavidin-HRP (streptavidin conjugated to horseradish peroxidase) were provided. A 96-well microtitre plate (Corning CoStar, flat bottom, polystyrene, high binding microtitre plate, UK) was coated with 100 μl per well of capture antibody (mouse anti-human IFN-γ at 4.0 μg/ml), sealed and incubated overnight. Unbound capture antibody was washed from the wells three times, using a wash buffer (0.05% Tween 20 in PBS). Block buffer (1% bovine serum albumin (BSA) in PBS) was then added. After incubation for 1 hour, the wells were washed, and sample culture supernatants or standards were added. A 7-point standard curve (in the range 15.6-1000 pg/ml) was produced from […] recombinant human IFN-γ using 2-fold serial dilutions in reagent diluent (0.1% BSA, 0.05% Tween 20 in tris-buffered saline (20 mM Trizma base, 150 mM NaCl)). The sealed plates were left to incubate for 2 hours.
After further washing, the detection antibody (biotinylated goat anti-human IFN-γ at 175 ng/ml) was added, and the plates sealed and incubated for a further 2 hours. […]

**Q.** `Nc1nnc(-c2cccc(Cl)c2Cl)c(N)n1` [Lamotrigine, 3,5-diamino-6-(2,3-dichlorophenyl)-1,2,4-triazine] was tested. Which “effect on PBMC viability” value (PBMCs) did it give?
**A.** The value was “did not appear to alter PBMC viability”.

**Q.** What about the “IFN-γ Concentration” value ([1]; 3 μM, Subject 1, 24 h) of the same compound?
**A.** The value was 1153.13 pg/mL.

**Q.** And the “IFN-γ Concentration” value ([1]; 3 μM, Subject 2, 24 h)?
**A.** The value was 1238.68 pg/mL.

**Q.** And the “IFN-γ Concentration” value ([1]; 3 μM, Subject 3, 24 h)?
**A.** The value was 1641.69 pg/mL.

**Q.** What about the “IFN-γ Concentration” value ([1]; 3 μM, Subject 4, 24 h) of the same compound?
**A.** Its value is 937.30 pg/mL.

**Q.** What about the “IFN-γ Concentration” value ([1]; 3 μM, Subject 6, 24 h) of the same compound?
**A.** Its value is 1305.54 pg/mL.

**Q.** What about the “IFN-γ Concentration, Mean” value ([1]; 3 μM, mean of five subjects) of the same compound?
**A.** The value was 1255.27 pg/mL.

**Q.** What about the “IFN-γ Concentration” value ([1]; 10 μM, Subject 1, 24 h) of the same compound?
**A.** Its value is 923.32 pg/mL.

**Q.** What about the “IFN-γ Concentration” value ([1]; 10 μM, Subject 2, 24 h) of the same compound?
**A.** Its value is 1307.46 pg/mL.

**Q.** And the “IFN-γ Concentration” value ([1]; 10 μM, Subject 3, 24 h)?
**A.** The value was 1180.21 pg/mL.

**Q.** And the “IFN-γ Concentration” value ([1]; 10 μM, Subject 4, 24 h)?
**A.** Its value is 895.04 pg/mL.

**Q.** And the “IFN-γ Concentration” value ([1]; 10 μM, Subject 6, 24 h)?
**A.** Its value is 1227.25 pg/mL.

**Q.** And the “IFN-γ Concentration, Mean” value ([1]; 10 μM, mean of five subjects)?
**A.** The value was 1106.66 pg/mL.

**Q.** And the “IFN-γ Concentration” value ([1]; 30 μM, Subject 1, 24 h)?
**A.** Its value is 872.99 pg/mL.

**Q.** And the “IFN-γ Concentration” value ([1]; 30 μM, Subject 2, 24 h)?
**A.** Its value is 1089.69 pg/mL.

**Q.** What about the “IFN-γ Concentration” value ([1]; 30 μM, Subject 3, 24 h) of the same compound?
**A.** The value was 897.48 pg/mL.

**Q.** And the “IFN-γ Concentration” value ([1]; 30 μM, Subject 4, 24 h)?
**A.** The value was 853.66 pg/mL.

**Q.** What about the “IFN-γ Concentration” value ([1]; 30 μM, Subject 6, 24 h) of the same compound?
**A.** Its value is 1191.37 pg/mL.

**Q.** What about the “IFN-γ Concentration, Mean” value ([1]; 30 μM, mean of five subjects) of the same compound?
**A.** Its value is 981.04 pg/mL.

**Q.** And the “IFN-γ Concentration” value ([1]; 100 μM, Subject 1, 24 h)?
**A.** Its value is 834.21 pg/mL.

**Q.** What about the “IFN-γ Concentration” value ([1]; 100 μM, Subject 2, 24 h) of the same compound?
**A.** Its value is 886.41 pg/mL.

**Q.** And the “IFN-γ Concentration” value ([1]; 100 μM, Subject 3, 24 h)?
**A.** Its value is 392.96 pg/mL.

**Q.** What about the “IFN-γ Concentration” value ([1]; 100 μM, Subject 4, 24 h) of the same compound?
**A.** The value was 775.28 pg/mL.

**Q.** What about the “IFN-γ Concentration” value ([1]; 100 μM, Subject 6, 24 h) of the same compound?
**A.** Its value is 1095.88 pg/mL.

**Q.** What about the “IFN-γ Concentration, Mean” value ([1]; 100 μM, mean of five subjects) of the same compound?
**A.** The value was 796.95 pg/mL.

**Q.** And the “IFN-γ Concentration” value ([1]; 300 μM, Subject 4, 24 h)?
**A.** Its value is 495.48 pg/mL.

**Q.** And the “IFN-γ Concentration” value ([1]; 300 μM, Subject 6, 24 h)?
**A.** The value was 798.32 pg/mL.

**Q.** And the “IFN-γ Concentration, Mean” value ([1]; 300 μM, mean of two subjects)?
**A.** Its value is 646.90 pg/mL.

**Q.** And the “inhibition of IFN-γ production, trend” value ([1]; 300 μM, two subjects, no significance value calculated)?
**A.** The value was “continuing trend towards further increased inhibition”.

**Q.** And the “inhibition of IFN-γ production, significance recalculated without subject 3” value ([1]; 10, 30 and 100 μM, four subjects)?
**A.** The value was “statistically significant (P<0.05) inhibition of IFN-γ production”.

**Q.** And the “inhibition of IFN-γ production (in words)” value ([1]; Experiment 1, human PBMCs)?
**A.** The value was “inhibits the amount of IFN-γ produced by the PBMCs”.

**Q.** And the “reduction in IFN-γ production” value ([1]; Subject 3, 100 μM)?
**A.** The value was 75%.

**Q.** And the “reduction of IFN-γ produced by PBMCs, significance vs control” value ([1]; concentrations of 10 to 100 μM, paired Student's t-test)?
**A.** Its value is “statistically significant (P<0.05) reductions”.
